# EPA's ToxRefDB 2
# Columns and labels:
# primate [1] = conditions: Sub-acute repeat dose toxicity, Oral, Gavage/Intubation, dose end: 14 day, group: systemic
# rat [2] = conditions: Sub-acute repeat dose toxicity, sprague dawley, Oral, Gavage/Intubation, dose end: 14 day, group: systemic
# rat [3] = conditions: Sub-acute repeat dose toxicity, Oral, Gavage/Intubation, dose end: 7 day, group: systemic
# primate [4] = conditions: Sub-acute repeat dose toxicity, Oral, Gavage/Intubation, dose end: 7 day, group: systemic
# dog [5] = conditions: Subchronic oral toxicity in nonrodent, beagle, Feed, dose end: 90 day, group: systemic
# rat [6] = conditions: Subchronic oral toxicity in rodents, sprague dawley, Gavage/Intubation, dose end: 90 day, group: systemic, systemic / pathology microscopic / stomach / hyperkeratosis + systemic / pathology microscopic / stomach / hyperplasia
# rat [7] = conditions: Subchronic oral toxicity in rodents, sprague dawley, Gavage/Intubation, dose end: 92 day, group: systemic, systemic / pathology microscopic / stomach / thickened
# rat [8] = conditions: Subchronic oral toxicity in rodents, sprague dawley, Feed, dose end: 13 week, group: systemic
# rat [9] = conditions: Prenatal developmental toxicity study, sprague dawley, Oral, Gavage/Intubation, dose end: 16 GD
# rat [10] = conditions: Subchronic oral toxicity in rodents, wistar, Feed, dose end: 90 day, group: systemic, systemic / organ weight / thyroid gland / absolute + systemic / organ weight / thyroid gland / relative to body weight + systemic / …
# rat [11] = conditions: Carcinogenicity, wistar, Oral, Feed, dose end: 24 month, group: systemic
# dog [12] = conditions: Subchronic oral toxicity in nonrodent, beagle, Feed, dose end: 90 day, group: systemic; remark: listed apart in the source
# rabbit = conditions: Prenatal developmental toxicity study, himalayan, Oral, Gavage/Intubation, dose end: 28 GD
# rat [13] = conditions: Chronic toxicity, wistar, Oral, Feed, dose end: 104 week, group: systemic
# mouse [14] = conditions: Subchronic oral toxicity in rodents, other, Feed, dose end: 90 day, group: systemic
# rat [15] = conditions: Multigenerational reproductive toxicity study, wistar, Oral, Feed, dose end: 2 generation
# mouse [16] = conditions: Carcinogenicity, other, Oral, Feed, dose end: 18 month, group: systemic
# dog [17] = conditions: Chronic toxicity, beagle, Oral, Feed, dose end: 52 week, group: systemic
# rat [18] = conditions: Prenatal developmental toxicity study, sprague dawley, Oral, Gavage/Intubation, dose end: 15 GD
# rat [19] = conditions: Prenatal developmental toxicity study; sprague dawley; Oral; Gavage/Intubation; dose end: 15 GD; group: maternal; systemic / in life observation / clinical signs / post-dosing rooting in bedding + systemic / in life observation / food consumption / food …
# [20] = systemic / in life observation / body weight / body weight
# [21] = systemic / in life observation / body weight / body weight + systemic / clinical chemistry / chloride / chloride + systemic / clinical …
# [22] = systemic / clinical chemistry / albumin / albumin + systemic / clinical chemistry / globulins / globulins + systemic / pathology microscopic…
# [23] = systemic / in life observation / mortality / mortality + systemic / pathology microscopic / stomach / degeneration + systemic / clinical …
# [24] = systemic / clinical chemistry / phosphorus / phosphorus + systemic / clinical chemistry / sodium / sodium + systemic / clinical chemistry / …
# [25] = systemic / pathology microscopic / vagina / prolapse + systemic / in life observation / clinical signs / vomitting + systemic / in life …
# [26] = systemic / in life observation / body weight / body weight + systemic / in life observation / food consumption / food consumption + systemic…
# [27] = systemic / in life observation / body weight / body weight + systemic / in life observation / food consumption / food efficiency + systemic…
# [28] = group: developmental, developmental / developmental malformation / bone / incomplete ossification + developmental / developmental malformation / bone / unossified…
# [29] = group: maternal, systemic / in life observation / body weight / body weight gain + systemic / in life observation / food consumption / food consumption + …
# [30] = systemic / clinical chemistry / alkaline phosphatase (alp/alk) / alkaline phosphatase (alp/alk) + systemic / organ weight / liver / absolute…
# [31] = systemic / hematology / blood clotting / blood clotting - prothrombin time
# [32] = group: developmental, developmental / developmental malformation / bone / incomplete ossification
# [33] = group: maternal, reproductive / reproductive performance / aborted / aborted + reproductive / reproductive performance / premature delivery / premature …
# [34] = systemic / clinical chemistry / alanine aminotransferase (alt/sgpt) / alanine aminotransferase (alt/sgpt) + systemic / clinical chemistry / …
# [35] = systemic / organ weight / thyroid gland / absolute + systemic / pathology microscopic / thyroid gland / hyperplasia + systemic / pathology …
# [36] = systemic / organ weight / liver / absolute
# [37] = systemic / organ weight / liver / absolute + systemic / organ weight / liver / relative to body weight + systemic / pathology microscopic / …
# [38] = group: offspring, systemic / in life observation / body weight / offspring (pup) weight + systemic / in life observation / body weight / offspring (pup) …
# [39] = group: offspring, systemic / organ weight / thymus / absolute
# [40] = group: parental, systemic / pathology microscopic / liver / degeneration + systemic / pathology microscopic / liver / hypertrophy
# [41] = group: reproductive, reproductive / reproductive performance / implantations / implantations
# [42] = systemic / in life observation / body weight / body weight + systemic / organ weight / liver / absolute + systemic / organ weight / liver / …
# [43] = group: developmental, developmental / developmental malformation / bone / [other]
# [44] = group: maternal, systemic / in life observation / body weight / body weight + systemic / in life observation / clinical signs / [other] + systemic / in life …
smiles,measurement,setting,value
CCn1nc(C)c2c1C(=O)NCC(c1ccc(O)cc1)=N2,LEL,primate [1]; [20],5 mg/kg/day
same,NEL,primate [1]; [20],< 5 mg/kg/day
same,LOAEL,primate [1]; [21],> 20 mg/kg/day
same,NOAEL,primate [1]; [21],≥ 20 mg/kg/day
same,LOAEL,rat [2]; [22],> 80 mg/kg/day
same,NOAEL,rat [2]; [22],≥ 80 mg/kg/day
same,NEL,rat [2]; systemic / organ weight / testes / absolute + systemic / pathology microscopic / blood vessel / inflammation + systemic / pathology …,20 mg/kg/day
same,LEL,rat [2]; systemic / organ weight / testes / absolute + systemic / pathology microscopic / heart / necrosis + systemic / pathology microscopic / …,40 mg/kg/day
same,LOAEL,rat [3]; [23],> 300 mg/kg/day
same,NOAEL,rat [3]; [23],≥ 300 mg/kg/day
same,LEL,rat [3]; systemic / pathology microscopic / heart / fibrosis + systemic / pathology microscopic / heart / hemorrhage + systemic / pathology …,80 mg/kg/day
same,LOAEL,primate [4]; [24],> 50 mg/kg/day
same,NOAEL,primate [4]; [24],≥ 50 mg/kg/day
same,LEL,primate [4]; [25],10 mg/kg/day
same,NEL,primate [4]; [25],< 10 mg/kg/day
"O=c1[nH]sc2ccccc12 [1,2-Benzisothiazolin-3-one]",LOAEL,dog [5]; systemic / in life observation / body weight / body weight + systemic / in life observation / food consumption / food consumption,89 mg/kg/day
same,LEL,dog [5]; [26],89 mg/kg/day
same,NEL,dog [5]; [26],38 mg/kg/day
same,NOAEL,dog [5]; [26],38 mg/kg/day
same,LEL,rat [6],10 mg/kg/day
same,LOAEL,rat [6],> 10 mg/kg/day
same,NOAEL,rat [6],≥ 10 mg/kg/day
same,LEL,rat [7],10 mg/kg/day
same,LOAEL,rat [7],10 mg/kg/day
same,NEL,rat [7],< 10 mg/kg/day
same,NOAEL,rat [7],< 10 mg/kg/day
same,LEL,rat [8]; [20],69 mg/kg/day
same,LOAEL,rat [8]; [20],69 mg/kg/day
same,NEL,rat [8]; [27],15.3 mg/kg/day
same,NOAEL,rat [8]; [27],15.3 mg/kg/day
same,LOAEL,rat [9]; [28],100 mg/kg/day
same,NEL,rat [9]; [28],10 mg/kg/day
same,NOAEL,rat [9]; [28],40 mg/kg/day
same,LEL,"rat [9]; group: developmental, developmental / developmental malformation / bone / unossified",40 mg/kg/day
same,LOAEL,"rat [9]; group: maternal, systemic / in life observation / body weight / body weight gain + systemic / in life observation / food consumption / food consumption",100 mg/kg/day
same,NEL,rat [9]; [29],10 mg/kg/day
same,NOAEL,rat [9]; [29],40 mg/kg/day
same,LEL,"rat [9]; group: maternal, systemic / in life observation / clinical signs / abnormal respiratory sounds",40 mg/kg/day
O=C(Nc1ccccc1-c1ccc(Cl)cc1)c1cccnc1Cl [Boscalid],LEL,rat [10],137 mg/kg/day
same,LOAEL,rat [10],137 mg/kg/day
same,NEL,rat [10],34 mg/kg/day
same,NOAEL,rat [10],34 mg/kg/day
same,NEL,rat [11]; systemic / in life observation / mortality / mortality + systemic / in life observation / body weight / body weight + systemic / in life …,1020 mg/kg/day
same,LOAEL,rat [11]; systemic / pathology microscopic / thyroid gland / hyperplasia + systemic / pathology microscopic / thyroid gland / hypertrophy,116 mg/kg/day
same,NOAEL,rat [11]; systemic / pathology microscopic / thyroid gland / hyperplasia + systemic / pathology microscopic / thyroid gland / hypertrophy + systemic…,23 mg/kg/day
same,LOAEL,dog [12]; [30],78.1 mg/kg/day
same,NOAEL,dog [12]; [30],7.6 mg/kg/day
same,LEL,dog [12]; [31],8.1 mg/kg/day
same,NEL,dog [12]; [31],< 8.1 mg/kg/day
same,LEL,rabbit; [32],1000 mg/kg/day
same,LOAEL,rabbit; [32],> 1000 mg/kg/day
same,NEL,rabbit; [32],300 mg/kg/day
same,NOAEL,rabbit; [32],≥ 1000 mg/kg/day
same,LEL,rabbit; [33],1000 mg/kg/day
same,LOAEL,rabbit; [33],1000 mg/kg/day
same,NEL,rabbit; [33],300 mg/kg/day
same,NOAEL,rabbit; [33],300 mg/kg/day
same,LEL,rat [13]; [34],5.9 mg/kg/day
same,NEL,rat [13]; [34],< 5.9 mg/kg/day
same,LOAEL,rat [13]; [35],110 mg/kg/day
same,NOAEL,rat [13]; [35],21.9 mg/kg/day
same,LEL,mouse [14]; [36],42 mg/kg/day
same,NEL,mouse [14]; [36],< 42 mg/kg/day
same,LOAEL,mouse [14]; [37],788 mg/kg/day
same,NOAEL,mouse [14]; [37],197 mg/kg/day
same,LOAEL,rat [15]; [38],124 mg/kg/day
same,NOAEL,rat [15]; [38],12.3 mg/kg/day
same,LEL,rat [15]; [39],12.3 mg/kg/day
same,NEL,rat [15]; [39],< 12.3 mg/kg/day
same,LOAEL,"rat [15]; group: parental, systemic / pathology microscopic / liver / degeneration",1030 mg/kg/day
same,NEL,rat [15]; [40],10.1 mg/kg/day
same,NOAEL,rat [15]; [40],101 mg/kg/day
same,LEL,"rat [15]; group: parental, systemic / pathology microscopic / liver / hypertrophy",101 mg/kg/day
same,LEL,rat [15]; [41],10.7 mg/kg/day
same,LOAEL,rat [15]; [41],> 1060 mg/kg/day
same,NEL,rat [15]; [41],< 10.7 mg/kg/day
same,NOAEL,rat [15]; [41],≥ 1060 mg/kg/day
same,LOAEL,mouse [16]; [20],331 mg/kg/day
same,NEL,mouse [16]; [42],13 mg/kg/day
same,NOAEL,mouse [16]; [42],65 mg/kg/day
same,LEL,mouse [16]; systemic / in life observation / body weight / body weight + systemic / organ weight / liver / relative to body weight,65 mg/kg/day
same,LOAEL,dog [17]; systemic / clinical chemistry / alkaline phosphatase (alp/alk) / alkaline phosphatase (alp/alk) + systemic / organ weight / liver / absolute,57.4 mg/kg/day
same,LEL,dog [17]; [30],57.4 mg/kg/day
same,NEL,dog [17]; [30],21.8 mg/kg/day
same,NOAEL,dog [17]; [30],21.8 mg/kg/day
CSc1nc(NC2CC2)nc(NC(C)(C)C)n1 [Cybutryne],LEL,rat [18]; [43],300 mg/kg/day
same,LOAEL,rat [18]; [43],> 300 mg/kg/day
same,NEL,rat [18]; [43],150 mg/kg/day
same,NOAEL,rat [18]; [43],≥ 300 mg/kg/day
same,LOAEL,"rat [18]; group: maternal, systemic / in life observation / body weight / body weight + systemic / in life observation / body weight / body weight gain",300 mg/kg/day
same,LEL,"rat [18]; group: maternal, systemic / in life observation / body weight / body weight + systemic / in life observation / clinical signs / [other]",150 mg/kg/day
same,NEL,rat [18]; [44],50 mg/kg/day
same,NOAEL,rat [18]; [44],150 mg/kg/day
same,LEL,rat [19],150 mg/kg/day
same,LOAEL,rat [19],150 mg/kg/day
same,NEL,rat [19],50 mg/kg/day
same,NOAEL,rat [19],50 mg/kg/day
